Where two headings read alike, the source gives them in different places.
Assays:
I-SceI:GR [1] = system: I-SceI:GR
Procedure: (§1) Embryos isolated from selfed plants containing the TL and DL were placed onto a regeneration medium according to Ishida et al. (Ishida et al., 1996) lacking the kanamycin selective agent. For first experiment, LS-AS medium was complemented by 0, 30 or 50 μM dexamethasone and after one week transferred sequentially to LSD1.5, LSZ and ½LSF medium lacking dexamethasone and containing 50 mg·L−1 of kanamycin. For the second experiment, callus was developed for 3 days on LS-AS, 1 week on LSD1.5 and 3 weeks on LSZ medium. Then, callus was cultivated 1 week on LSZ medium complemented by 0 μM, 30 μM or 50 μM of dexamethasone and selected for 2 weeks on LSZ and then ½ LSF medium complemented by 50 mg·L−1 of kanamycin. GFP fluorescence of callus was visualized under the fluorescence stereomicroscope (Leica MZ16F) with a GFP2 filter.
Plant regeneration from maize leaves has not been reported but calli derived from immature maize embryos are routinely used to regenerate plants (Lu et al., 1983). Embryos isolated from immature kernels of selfed F2 plants containing the TL and the DL were placed on callus induction medium with dexamethasone at 0 μM (control), 30 μM or 50 μM.

I-SceI:GR [2] = settings: one week
Procedure: as §1

C[C@@H]1C[C@H]2[C@@H]3CCC4=CC(=O)C=C[C@]4(C)[C@@]3(F)[C@@H](O)C[C@]2(C)[C@@]1(O)C(=O)CO [Dexamethasone, dexamethasone]
GT Frequency, discovered kanamycin resistant events/extracted embryos (I-SceI:GR [1]; TL1 × DL, 30 μM): 0.39% | GT Frequency, discovered kanamycin resistant events/extracted embryos (I-SceI:GR [1]; TL1 × DL, 50 μM): 0.55% | Number of kanamycin resistant events (I-SceI:GR [1]; TL1 × DL, 181 extracted embryos, 50 μM): 1 | Number of kanamycin resistant events (I-SceI:GR [1]; TL1 × DL, 255 extracted embryos, 30 μM in callus induction medium): 1 | GT Frequency, discovered kanamycin resistant events/extracted embryos (I-SceI:GR [1]; TL2 × DL, 30 μM): 0.53% | GT Frequency, discovered kanamycin resistant events/extracted embryos (I-SceI:GR [1]; TL2 × DL, 50 μM): 0.27% | Number of kanamycin resistant events (I-SceI:GR [1]; TL2 × DL, 374 extracted embryos, 50 μM): 1 | Number of kanamycin resistant events (I-SceI:GR [1]; TL2 × DL, 563 extracted embryos, 30 μM): 3 | Mutations in TL I-SceI site (I-SceI:GR [2]; TL1/DL calli, 30 μM): 76 | Mutations in TL I-SceI site (I-SceI:GR [2]; TL1/DL calli, 50 μM): 76 | Mutations in TL I-SceI site (I-SceI:GR [2]; TL2/DL calli, 30 μM): 15 | Mutations in TL I-SceI site (I-SceI:GR [2]; TL2/DL calli, 50 μM): 36

Source: patent US20150189844A1, “METHOD FOR […] RECOMBINATION” (Biogemma, priority 2012, published 2015)
